Measured values taken from patent publication US20250108034A1, “EYE DROP FORMULATION” (priority 2021, published 2025).

Tests used:
[1] = Ex vivo corneal drug permeation with Raman mapping; type: in vitro ADME, porcine; settings: after 15 min treatment, compared to 5 min treatment
Method: The ex vivo penetration of ASP was examined with HPLC and Raman microscopy. Freshly donated porcine eyes obtained from the slaughterhouse was placed on a sterile cotton wool bed moistened with physiological saline solution and kept in refrigerator box during the transportation. The porcine eye was placed into a Teflon cell, where the cornea was uncovered and surrounded by a Teflon ring to prevent the flow of eye drops. The cornea was instilled with 1000 μL of physiological saline solution and 50 μL of ASP-CD formulation was added to the covering saline solution, which can imitate physiological dilution caused by tear fluid and incubated at 35° C. […] ASP content in the residual solution, aqueous humour and cornea was determined with HPLC. The corneal retention of AS was calculated according to Eq. 2., whereas apparent permeability by using the following equation: […]
Raman mapping was carried out to examine the distribution of selected ASP-CD formulation and initial ASP on porcine cornea. […] For localization of permeated formulation, the Raman spectra of ASP was set as profile, whose frequency of occurrence was determined by measuring the relative intensity of ASP in the Raman maps with ImageJ 1.4 software (National Institutes of Health, Bethesda, MD, USA).

[2] = Stability study (shelf-life) of ASP and ASP-CD complexes in physiological saline; type: physicochemical; settings: for Shelf-life (t90%): physiological saline
Method: The determination of ASP concentration was performed with HPLC using an Agilent 1260 (Agilent Technologies, Santa Clara, USA). As stationary phase a Zorbax Eclipse© C18 column 100×4.6 mm, 5 μm (Phenomenex, Torrance, CA, USA) was applied. Isocratic elution with purified water and methanol 10:90 (v/v) was applied for 6 min at a flow rate of 1.0 mL/min at 25° C. 10 μL of the samples were injected to determine the ASP concentration. The chromatograms were detected at 255 nm using UV-VIS diode array detector. Data were evaluated using ChemStation B.04.03. Software (Agilent Technologies, Santa Clara, USA). […] Chemical stability of ASP and ASP-CD complexes was investigated in physiological saline at room condition (25±0.5° C.) and cold place condition (4±0.5° C.) for 5 days. Actual drug content was quantified using HPLC in predetermined time intervals to predict shelf-life of formulations.

[3] = system: conjunctival and corneal surface of rabbit eyes; settings: in vivo
[4] = system: conjunctival and corneal surface of rabbit eyes; test: Ocular administration of cyclodextrins to rabbit eyes (irritation/tolerability); settings: concentrations of 5 and 12.5%

## CCCCCCCCCCCCCCCC(=O)OC[C@H](O)[C@H]1OC(=O)C(O)=C1O [ASP, L-Ascorbic acid 6-palmitate]
[1]
  Relative intensity of ASP in Raman maps: increased
[2]; stored at 4° C.
  Shelf-life (t90%): 4.58 h
[2]; stored at 25° C.
  Shelf-life (t90%): 8.37 h

## CC(O)COC[C@H]1O[C@@H]2O[C@H]3[C@H](O)[C@@H](O)[C@@H](O[C@H]4[C@H](O)[C@@H](O)[C@@H](O[C@H]5[C@H](O)[C@@H](O)[C@@H](O[C@H]6[C@H](O)[C@@H](O)[C@@H](O[C@H]7[C@H](O)[C@@H](O)[C@@H](O[C@H]8[C@H](O)[C@@H](O)[C@@H](O[C@H]1[C@H](O)[C@H]2O)O[C@@H]8COCC(C)O)O[C@@H]7COCC(C)O)O[C@@H]6COCC(C)O)O[C@@H]5COCC(C)O)O[C@@H]4COCC(C)O)O[C@@H]3COCC(C)O (stereo partly drawn) [HPBCD, (2-Hydroxypropyl)-beta-cyclodextrin]
[3]
  Ocular tolerability: well tolerated

## benzalkonium chloride [BC]
[2]; 0.004 and 0.008% BC
  Effect of BC on the shelf-life: no significant effect

## randomly substituted methyl-beta-cyclodextrin [RAMEB]
[4]
  Ocular irritation: irritating
